From article PMC4106721, “Structure of a Membrane-Embedded Prenyltransferase Homologous to UBIAD1” (PLoS Biology, 2014)

How the values were obtained:
Test in all cases: isothermal titration calorimetry
Format in all cases: binding
AfUbiA [1] = biological target: T1, AfUbiA (Archaeoglobus fulgidus, UniProt O28625, D202A)
T1 construct: gene AF_1648; full gene in modified pET vector, N-terminal His-tag removed with TEV protease, expressed in E. coli BL21(DE3), DM-solubilised for ITC or in lipidic cubic phase for crystals; likely monomer

AfUbiA [2] = biological target: T2, AfUbiA (Archaeoglobus fulgidus, UniProt O28625, D72A); conditions: 2 mM MgCl2, pH 7.5, 25 °C, 4 mM DM
T2 construct: gene AF_1648; full gene in modified pET vector, N-terminal His-tag removed with TEV protease, expressed in E. coli BL21(DE3), DM-solubilised for ITC or in lipidic cubic phase for crystals; likely monomer

AfUbiA [3] = biological target: T3, AfUbiA (Archaeoglobus fulgidus, UniProt O28625)
T3 construct: gene AF_1648; full gene in modified pET vector, N-terminal His-tag removed with TEV protease, expressed in E. coli BL21(DE3), DM-solubilised for ITC or in lipidic cubic phase for crystals; likely monomer
T3 sequence (O28625 1-303): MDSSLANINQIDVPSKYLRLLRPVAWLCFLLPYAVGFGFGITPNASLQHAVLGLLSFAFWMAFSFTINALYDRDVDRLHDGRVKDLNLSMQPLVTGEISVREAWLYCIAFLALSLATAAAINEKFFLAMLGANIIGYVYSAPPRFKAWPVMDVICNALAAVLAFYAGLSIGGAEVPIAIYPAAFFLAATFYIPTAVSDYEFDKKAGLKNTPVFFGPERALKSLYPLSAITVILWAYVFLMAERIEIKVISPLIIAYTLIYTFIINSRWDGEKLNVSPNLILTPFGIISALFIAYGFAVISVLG

AfUbiA [4] = biological target: T4, AfUbiA (Archaeoglobus fulgidus, UniProt O28625, K146A); conditions: 2 mM MgCl2, pH 7.5, 25 °C, 4 mM DM
T4 construct: gene AF_1648; full gene in modified pET vector, N-terminal His-tag removed with TEV protease, expressed in E. coli BL21(DE3), DM-solubilised for ITC or in lipidic cubic phase for crystals; likely monomer

AfUbiA [5] = biological target: T5, AfUbiA (Archaeoglobus fulgidus, UniProt O28625, R22A); conditions: 2 mM MgCl2, pH 7.5, 25 °C, 4 mM DM
T5 construct: gene AF_1648; full gene in modified pET vector, N-terminal His-tag removed with TEV protease, expressed in E. coli BL21(DE3), DM-solubilised for ITC or in lipidic cubic phase for crystals; likely monomer

AfUbiA [6] = biological target: T6, AfUbiA (Archaeoglobus fulgidus, UniProt O28625, D198A)
T6 construct: gene AF_1648; full gene in modified pET vector, N-terminal His-tag removed with TEV protease, expressed in E. coli BL21(DE3), DM-solubilised for ITC or in lipidic cubic phase for crystals; likely monomer

AfUbiA [7] = biological target: T7, AfUbiA (Archaeoglobus fulgidus, UniProt O28625, N68A); conditions: 2 mM MgCl2, pH 7.5, 25 °C, 4 mM DM
T7 construct: gene AF_1648; full gene in modified pET vector, N-terminal His-tag removed with TEV protease, expressed in E. coli BL21(DE3), DM-solubilised for ITC or in lipidic cubic phase for crystals; likely monomer
T7 sequence (O28625 entry or part of it N68A): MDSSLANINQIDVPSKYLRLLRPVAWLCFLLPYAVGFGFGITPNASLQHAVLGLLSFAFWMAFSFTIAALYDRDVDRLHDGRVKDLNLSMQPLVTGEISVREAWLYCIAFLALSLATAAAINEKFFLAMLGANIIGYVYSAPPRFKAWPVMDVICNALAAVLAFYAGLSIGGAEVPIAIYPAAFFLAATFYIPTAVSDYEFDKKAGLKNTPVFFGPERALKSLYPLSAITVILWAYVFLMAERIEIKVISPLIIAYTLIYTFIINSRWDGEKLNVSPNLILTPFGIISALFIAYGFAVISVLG

T5 sequence (O28625 entry or part of it R22A): as the sequence (O28625 entry or part of it N68A) above, with R22A, A68N counted along it
T1 sequence (O28625 entry or part of it D202A): as the sequence (O28625 entry or part of it N68A) above, with A68N, D202A counted along it
T6 sequence (O28625 entry or part of it D198A): as the sequence (O28625 entry or part of it N68A) above, with A68N, D198A counted along it
T2 sequence (O28625 entry or part of it D72A): as the sequence (O28625 entry or part of it N68A) above, with A68N, D72A counted along it
T4 sequence (O28625 entry or part of it K146A): as the sequence (O28625 entry or part of it N68A) above, with A68N, K146A counted along it

Kd (AfUbiA [1]): 67 ± 9 µM | Kd (AfUbiA [3]): 3.2 ± 0.1 µM | Kd (AfUbiA [6]): 144 ± 13 µM
SMILES: CC(C)=CCC/C(C)=C/COP(=O)(O)OP(=O)(O)O [geranyl diphosphate]
no binding detected (N.D.) (AfUbiA [2]): Four of the mutations completely abolished GPP binding | no binding detected (N.D.) (AfUbiA [4]): Four of the mutations completely abolished GPP binding | no binding detected (N.D.) (AfUbiA [5]): Four of the mutations completely abolished GPP binding | no binding detected (N.D.) (AfUbiA [7]): Four of the mutations completely abolished GPP binding
